Measurements: ChEMBL document CHEMBL1201862, “PubChem BioAssay data set” (2004)
Active and inactive are the calls of the source.

How the values were obtained:
Insulin-degrading enzyme = target: T1, Insulin-degrading enzyme (Homo sapiens, UniProt P14735); assay: activators of recombinant IDE enzyme, dose response, counter-screen for IDE activator project, biochemical, fluorescence polarization (AID 588681)
T1 sequence (P14735 whole entry): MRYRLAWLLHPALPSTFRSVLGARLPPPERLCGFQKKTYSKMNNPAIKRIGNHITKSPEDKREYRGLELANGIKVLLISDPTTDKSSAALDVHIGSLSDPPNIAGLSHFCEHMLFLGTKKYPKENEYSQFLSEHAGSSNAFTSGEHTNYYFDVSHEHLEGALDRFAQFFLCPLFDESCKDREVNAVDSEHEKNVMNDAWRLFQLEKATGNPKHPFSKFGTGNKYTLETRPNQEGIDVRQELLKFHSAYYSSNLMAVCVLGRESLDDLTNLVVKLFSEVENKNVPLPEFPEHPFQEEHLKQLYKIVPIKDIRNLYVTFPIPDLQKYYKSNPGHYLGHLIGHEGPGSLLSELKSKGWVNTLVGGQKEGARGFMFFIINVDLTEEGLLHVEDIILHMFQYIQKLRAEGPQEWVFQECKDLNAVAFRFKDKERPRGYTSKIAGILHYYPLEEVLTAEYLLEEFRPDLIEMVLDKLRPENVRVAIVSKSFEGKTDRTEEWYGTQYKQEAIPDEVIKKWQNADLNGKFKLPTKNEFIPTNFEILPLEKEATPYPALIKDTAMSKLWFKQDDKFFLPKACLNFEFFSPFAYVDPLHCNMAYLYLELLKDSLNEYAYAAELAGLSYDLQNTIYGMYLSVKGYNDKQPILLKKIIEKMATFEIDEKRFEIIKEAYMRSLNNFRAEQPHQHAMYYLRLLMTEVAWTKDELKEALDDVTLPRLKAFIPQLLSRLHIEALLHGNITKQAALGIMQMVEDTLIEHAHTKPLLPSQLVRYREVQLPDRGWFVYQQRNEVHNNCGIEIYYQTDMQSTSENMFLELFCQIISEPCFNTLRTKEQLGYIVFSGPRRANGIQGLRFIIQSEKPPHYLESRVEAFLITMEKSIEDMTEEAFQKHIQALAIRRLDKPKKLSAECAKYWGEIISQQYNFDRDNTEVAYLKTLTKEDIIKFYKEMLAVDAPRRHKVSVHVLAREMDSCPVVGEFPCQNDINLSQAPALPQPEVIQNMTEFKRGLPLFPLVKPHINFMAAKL

[1] = inhibitors of SNCA 5'UTR-driven reporter translation, confirmation, H4 neuroglioma cells, luminescence (AID 1988); type: functional, cell-based
Streptokinase A = target: T2, Streptokinase A (Streptococcus pyogenes serotype M1, UniProt P10520); assay: S. pyogenes streptokinase expression inhibitors, potency, dose response, plasminogen activation absorbance, OD405 (AID 1914); type: functional, Streptococcus pyogenes M1 GAS;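 further: secreted streptokinase activity via plasminogen activation per viability signal from cell pellet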
T2 sequence (P10520 whole entry): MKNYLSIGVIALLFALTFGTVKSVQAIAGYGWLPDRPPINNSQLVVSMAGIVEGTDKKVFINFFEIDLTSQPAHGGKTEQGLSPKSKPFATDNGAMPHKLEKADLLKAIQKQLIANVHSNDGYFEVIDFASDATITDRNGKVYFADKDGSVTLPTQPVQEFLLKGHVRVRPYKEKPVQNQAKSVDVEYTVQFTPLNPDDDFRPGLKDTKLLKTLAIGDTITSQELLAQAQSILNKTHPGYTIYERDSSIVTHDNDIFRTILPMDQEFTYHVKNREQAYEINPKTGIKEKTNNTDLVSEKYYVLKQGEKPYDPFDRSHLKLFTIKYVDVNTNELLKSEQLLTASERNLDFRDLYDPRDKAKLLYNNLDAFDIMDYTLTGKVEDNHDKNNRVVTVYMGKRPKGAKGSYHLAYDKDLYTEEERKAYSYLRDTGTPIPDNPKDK

[2] = target: Heat shock protein HSP 90-alpha (Homo sapiens, UniProt P07900); assay: Luminescence-based dose response biochemical high throughput screening assay for inhibitors of the Heat Shock Protein 90 (HSP90). [Related pubchem assays: 1831 (Summary AID.), 1846 (Confirmation screen.), 1789 (Primary screen.)]
[3] = target: MAP kinase-activated protein kinase 3 (Homo sapiens, UniProt Q16644); type: functional;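 further: value comes from a kinome-wide profiling panel in which MAPKAPK3 is one of the panel members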
Chain of MAP kinase-activated protein kinase 3 (Q16644 whole entry): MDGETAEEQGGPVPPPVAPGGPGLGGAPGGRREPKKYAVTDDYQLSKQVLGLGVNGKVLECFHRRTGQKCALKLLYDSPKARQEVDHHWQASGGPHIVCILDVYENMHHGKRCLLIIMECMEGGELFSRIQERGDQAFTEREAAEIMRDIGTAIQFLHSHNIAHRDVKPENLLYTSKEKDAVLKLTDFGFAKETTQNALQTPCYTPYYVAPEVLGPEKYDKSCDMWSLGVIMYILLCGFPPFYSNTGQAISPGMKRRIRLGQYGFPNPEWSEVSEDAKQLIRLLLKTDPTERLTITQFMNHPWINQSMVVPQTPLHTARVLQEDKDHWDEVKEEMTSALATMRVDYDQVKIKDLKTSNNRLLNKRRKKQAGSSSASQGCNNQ

[4] = target: Protein-tyrosine kinase 2-beta (Homo sapiens, UniProt Q14289); type: functional
[5] = target: Serine/threonine-protein kinase BRSK1 (Homo sapiens, UniProt Q8TDC3); type: functional;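 further: measured within a kinome-wide kinase panel, with the target listed as KIAA1811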
Chain of Serine/threonine-protein kinase BRSK1 (Q8TDC3 whole entry): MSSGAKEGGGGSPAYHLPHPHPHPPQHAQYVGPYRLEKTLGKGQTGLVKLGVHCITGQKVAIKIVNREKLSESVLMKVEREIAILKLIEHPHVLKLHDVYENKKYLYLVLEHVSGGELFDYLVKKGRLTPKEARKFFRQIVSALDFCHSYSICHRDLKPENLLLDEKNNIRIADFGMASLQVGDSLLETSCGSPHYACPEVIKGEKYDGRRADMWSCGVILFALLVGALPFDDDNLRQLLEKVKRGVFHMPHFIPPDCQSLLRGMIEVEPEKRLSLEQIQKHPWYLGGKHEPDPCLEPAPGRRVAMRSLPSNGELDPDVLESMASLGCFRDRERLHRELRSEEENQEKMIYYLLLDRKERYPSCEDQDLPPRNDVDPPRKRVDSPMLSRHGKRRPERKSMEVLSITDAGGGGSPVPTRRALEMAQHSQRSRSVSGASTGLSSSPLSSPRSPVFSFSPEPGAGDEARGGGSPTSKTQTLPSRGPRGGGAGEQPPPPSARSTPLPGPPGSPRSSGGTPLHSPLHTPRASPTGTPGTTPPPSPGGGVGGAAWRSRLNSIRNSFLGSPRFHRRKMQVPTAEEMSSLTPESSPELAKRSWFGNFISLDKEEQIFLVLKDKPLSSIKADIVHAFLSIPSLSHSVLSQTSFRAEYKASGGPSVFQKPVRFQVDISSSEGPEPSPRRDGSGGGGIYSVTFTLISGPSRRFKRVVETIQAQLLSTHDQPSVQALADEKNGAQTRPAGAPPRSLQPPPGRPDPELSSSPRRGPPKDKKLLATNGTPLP

[6] = target: Tyrosine-protein kinase Fyn (Homo sapiens, UniProt P06241); type: functional
Chain of Tyrosine-protein kinase Fyn (P06241 whole entry): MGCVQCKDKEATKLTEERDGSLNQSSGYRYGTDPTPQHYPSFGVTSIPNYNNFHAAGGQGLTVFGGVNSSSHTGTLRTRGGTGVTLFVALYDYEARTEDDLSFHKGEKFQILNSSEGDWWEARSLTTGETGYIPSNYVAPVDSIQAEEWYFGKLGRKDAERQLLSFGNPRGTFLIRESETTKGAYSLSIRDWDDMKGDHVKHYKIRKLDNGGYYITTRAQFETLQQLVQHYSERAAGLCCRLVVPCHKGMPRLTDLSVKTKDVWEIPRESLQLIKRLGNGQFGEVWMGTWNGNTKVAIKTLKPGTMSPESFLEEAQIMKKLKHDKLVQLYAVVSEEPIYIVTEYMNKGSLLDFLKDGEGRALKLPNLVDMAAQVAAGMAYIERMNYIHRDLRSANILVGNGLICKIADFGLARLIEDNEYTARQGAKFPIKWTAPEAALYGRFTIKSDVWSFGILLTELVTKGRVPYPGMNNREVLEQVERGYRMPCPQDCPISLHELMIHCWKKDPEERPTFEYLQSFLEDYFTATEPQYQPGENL

[7] = target: Interleukin-1 receptor-associated kinase 1 (Homo sapiens, UniProt P51617); type: functional;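 further: IRAK1 tested as one member of a kinome panel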
[8] = target: Dual specificity protein kinase CLK2 (Homo sapiens, UniProt P49760); type: functional
Chain of Dual specificity protein kinase CLK2 (P49760 whole entry): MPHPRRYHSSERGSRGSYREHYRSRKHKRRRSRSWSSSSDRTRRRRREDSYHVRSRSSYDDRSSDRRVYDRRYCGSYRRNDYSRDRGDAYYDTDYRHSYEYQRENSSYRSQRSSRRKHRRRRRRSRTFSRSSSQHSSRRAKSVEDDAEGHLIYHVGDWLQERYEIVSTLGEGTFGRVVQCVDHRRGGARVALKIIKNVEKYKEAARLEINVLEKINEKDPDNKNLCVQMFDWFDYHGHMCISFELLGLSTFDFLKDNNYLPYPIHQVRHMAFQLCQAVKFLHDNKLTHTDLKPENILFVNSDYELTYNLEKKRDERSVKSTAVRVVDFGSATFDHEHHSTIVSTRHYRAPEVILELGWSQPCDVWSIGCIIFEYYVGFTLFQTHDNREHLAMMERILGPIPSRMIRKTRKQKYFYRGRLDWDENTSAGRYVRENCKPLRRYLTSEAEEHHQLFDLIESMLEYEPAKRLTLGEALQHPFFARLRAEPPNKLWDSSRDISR

[9] = target: STE20-like serine/threonine-protein kinase (Homo sapiens, UniProt Q9H2G2); type: functional
Chain of STE20-like serine/threonine-protein kinase (Q9H2G2 whole entry): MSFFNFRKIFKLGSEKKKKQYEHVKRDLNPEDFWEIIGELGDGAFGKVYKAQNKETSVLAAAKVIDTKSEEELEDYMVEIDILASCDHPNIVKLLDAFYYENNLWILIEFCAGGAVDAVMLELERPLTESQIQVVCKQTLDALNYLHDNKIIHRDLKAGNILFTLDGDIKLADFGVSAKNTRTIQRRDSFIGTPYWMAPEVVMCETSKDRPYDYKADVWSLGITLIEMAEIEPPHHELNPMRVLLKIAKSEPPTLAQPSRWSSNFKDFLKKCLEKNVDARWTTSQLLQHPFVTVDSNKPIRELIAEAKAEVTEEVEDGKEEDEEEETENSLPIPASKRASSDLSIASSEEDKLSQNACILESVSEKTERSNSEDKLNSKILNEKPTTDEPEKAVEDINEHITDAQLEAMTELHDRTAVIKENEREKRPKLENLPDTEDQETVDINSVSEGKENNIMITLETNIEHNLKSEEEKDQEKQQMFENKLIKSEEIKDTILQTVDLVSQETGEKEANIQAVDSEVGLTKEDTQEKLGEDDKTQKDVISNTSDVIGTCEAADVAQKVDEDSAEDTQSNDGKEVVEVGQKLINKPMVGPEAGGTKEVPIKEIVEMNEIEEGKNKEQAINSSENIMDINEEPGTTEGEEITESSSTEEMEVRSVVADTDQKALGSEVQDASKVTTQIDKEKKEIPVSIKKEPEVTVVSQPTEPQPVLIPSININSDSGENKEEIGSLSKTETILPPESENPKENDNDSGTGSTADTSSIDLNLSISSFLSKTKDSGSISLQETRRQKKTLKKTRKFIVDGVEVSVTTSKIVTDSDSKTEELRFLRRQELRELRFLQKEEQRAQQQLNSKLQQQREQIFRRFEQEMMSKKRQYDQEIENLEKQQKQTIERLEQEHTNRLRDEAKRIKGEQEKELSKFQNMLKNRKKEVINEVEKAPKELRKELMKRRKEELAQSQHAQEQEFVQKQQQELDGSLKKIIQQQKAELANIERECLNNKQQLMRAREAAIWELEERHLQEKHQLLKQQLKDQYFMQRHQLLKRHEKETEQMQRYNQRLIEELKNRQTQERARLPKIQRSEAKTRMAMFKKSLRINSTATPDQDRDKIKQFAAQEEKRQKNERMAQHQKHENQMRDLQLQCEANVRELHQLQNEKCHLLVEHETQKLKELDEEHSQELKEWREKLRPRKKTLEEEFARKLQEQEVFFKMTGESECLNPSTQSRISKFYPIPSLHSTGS

[10] = target: Tyrosine-protein kinase receptor UFO (Homo sapiens, UniProt P30530); type: functional
[11] = target: Tyrosine-protein kinase ABL1 (Homo sapiens, UniProt P00519); type: functional
[12] = target: Eukaryotic elongation factor 2 kinase (Homo sapiens, UniProt O00418); type: functional
Ephrin type-A receptor 2 = Ephrin type-A receptor 2 (Homo sapiens, UniProt P29317); type: functional;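 further: EPHA2 tested as one member of a kinome-wide kinase panel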
[13] = target: Serine/threonine-protein kinase Chk1 (Homo sapiens, UniProt O14757); type: functional;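 further: measured as one member of a kinome-wide kinase profiling panel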
Chain of Serine/threonine-protein kinase Chk1 (O14757 whole entry): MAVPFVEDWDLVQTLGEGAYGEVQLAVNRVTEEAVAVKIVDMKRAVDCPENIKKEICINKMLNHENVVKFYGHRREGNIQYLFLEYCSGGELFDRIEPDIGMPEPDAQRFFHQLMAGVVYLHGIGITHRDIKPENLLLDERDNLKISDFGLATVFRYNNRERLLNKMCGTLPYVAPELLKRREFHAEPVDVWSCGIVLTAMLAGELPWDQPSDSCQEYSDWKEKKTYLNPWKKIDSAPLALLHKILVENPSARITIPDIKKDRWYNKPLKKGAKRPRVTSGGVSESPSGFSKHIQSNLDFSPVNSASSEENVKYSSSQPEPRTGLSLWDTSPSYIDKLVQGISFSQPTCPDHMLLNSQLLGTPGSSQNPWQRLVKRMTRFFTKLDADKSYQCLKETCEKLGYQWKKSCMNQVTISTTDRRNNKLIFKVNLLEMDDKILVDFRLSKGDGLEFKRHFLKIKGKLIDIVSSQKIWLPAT

[14] = target: MAP kinase-activated protein kinase 5 (Homo sapiens, UniProt Q8IW41); type: functional;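 further: measured as one member of a kinome panel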
Chain of MAP kinase-activated protein kinase 5 (Q8IW41 whole entry): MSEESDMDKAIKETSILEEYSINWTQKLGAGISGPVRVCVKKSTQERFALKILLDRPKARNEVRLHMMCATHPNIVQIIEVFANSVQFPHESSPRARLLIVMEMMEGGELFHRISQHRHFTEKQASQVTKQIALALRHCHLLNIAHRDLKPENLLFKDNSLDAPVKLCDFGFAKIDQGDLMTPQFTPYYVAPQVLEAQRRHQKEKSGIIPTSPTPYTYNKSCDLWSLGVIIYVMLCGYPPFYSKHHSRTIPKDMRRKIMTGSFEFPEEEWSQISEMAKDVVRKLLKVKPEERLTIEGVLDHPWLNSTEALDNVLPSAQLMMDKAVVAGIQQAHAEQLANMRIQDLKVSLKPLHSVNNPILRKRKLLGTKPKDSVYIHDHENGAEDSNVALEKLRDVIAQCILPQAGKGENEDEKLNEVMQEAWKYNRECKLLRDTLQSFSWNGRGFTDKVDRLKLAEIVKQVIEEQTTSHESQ

[15] = target: cGMP-dependent protein kinase 1 (Homo sapiens, UniProt Q13976); type: functional;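 further: value from a kinome panel screen with PRKG1 as the panel member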
Chain of cGMP-dependent protein kinase 1 (Q13976 whole entry): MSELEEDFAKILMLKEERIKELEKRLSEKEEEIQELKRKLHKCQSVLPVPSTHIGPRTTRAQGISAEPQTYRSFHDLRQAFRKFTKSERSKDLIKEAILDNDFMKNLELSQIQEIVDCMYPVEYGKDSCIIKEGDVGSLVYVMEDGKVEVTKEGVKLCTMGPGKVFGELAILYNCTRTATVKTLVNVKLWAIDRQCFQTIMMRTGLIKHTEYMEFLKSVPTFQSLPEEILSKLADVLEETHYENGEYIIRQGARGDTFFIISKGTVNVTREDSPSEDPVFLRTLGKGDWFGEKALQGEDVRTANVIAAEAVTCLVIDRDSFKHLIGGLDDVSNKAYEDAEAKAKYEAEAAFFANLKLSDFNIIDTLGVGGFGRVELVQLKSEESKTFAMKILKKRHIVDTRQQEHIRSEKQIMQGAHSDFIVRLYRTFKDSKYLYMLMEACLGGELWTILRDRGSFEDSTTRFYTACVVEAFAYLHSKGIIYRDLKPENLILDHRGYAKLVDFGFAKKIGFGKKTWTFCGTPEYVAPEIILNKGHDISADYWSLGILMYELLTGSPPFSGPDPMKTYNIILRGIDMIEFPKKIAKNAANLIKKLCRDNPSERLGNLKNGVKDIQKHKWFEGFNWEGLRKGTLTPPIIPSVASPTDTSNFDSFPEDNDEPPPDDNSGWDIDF

[16] = target: Macrophage colony-stimulating factor 1 receptor (Homo sapiens, UniProt P07333); type: functional;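 further: value comes from the Navigating the Kinome screening panel, CSF1R member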
[17] = target: Receptor-type tyrosine-protein kinase FLT3 (Homo sapiens, UniProt P36888); type: functional;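 further: FLT3 was tested as one member of a kinome-wide kinase panel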
BJ = assay: cells; type: functional, cell-based; settings: Homo sapiens
[18] = HepG2 cell cytotoxicity, dose response, cytotoxicity control for non-replicating M. tuberculosis project (AID 489018); type: functional; settings: Mycobacterium tuberculosis
[19] = THP-1 cell cytotoxicity, dose response, cytotoxicity control for non-replicating M. tuberculosis project (AID 489025); type: functional
[20] = cytotoxicity toward DRD oncogenic fibroblasts, dose response, cell-based, non-viral oncogenic, luminescence (AID 1934); type: functional; settings: Homo sapiens
cells = type: functional
[21] = target: Serine/threonine-protein phosphatase (Homo sapiens, UniProt Q9BPW0); assay: PP5 phosphatase inhibitors, dose response, biochemical, fluorescence (AID 2395)

## CC[C@@H](C)[C@H](CNC)NC[C@@H](Cc1cccc2ccccc12)NCCc1cccc(C(F)(F)F)c1
Insulin-degrading enzyme
  EC50: > 54.7 µM (inactive)
[1]
  EC50: 7.84 µM (active)

## Cc1ccc(S(=O)(=O)/N=C2\C=C(Nc3cccc(C(=O)O)c3)C(=O)c3ccccc32)cc1
Streptokinase A
  EC50: 47.3 µM (active)
[2]
  IC50: 0.524 µM (active)

## CC(C)(CO)CNc1nccc(-c2c(-c3ccc(F)cc3)nc3c(CC4CC4)nccn23)n1
[3]
  Ki: > 10 µM (inactive)
[4]
  Ki: > 1.58 µM (inactive)
[5]
  Ki: > 10 µM (inactive)
[6]
  Ki: > 0.794 µM (inactive)
[7]
  Ki: > 7.94 µM (inactive)
[8]
  Ki: > 7.94 µM (inactive)
[9]
  Ki: > 10 µM (inactive)
[10]
  Ki: > 2 µM (inactive)
[11]
  Ki: > 0.631 µM (inactive)
[12]
  Ki: > 3.98 µM (inactive)
Ephrin type-A receptor 2
  Ki: > 3.16 µM (inactive)
[13]
  Ki: > 7.94 µM (inactive)
[14]
  Ki: > 1.58 µM (inactive)
[15]
  Ki: > 2 µM (inactive)
[16]
  Ki: > 2.51 µM (inactive)
[17]
  Ki: > 2.51 µM (inactive)

## O=[N+]([O-])c1c(Nc2ccccn2)cc(Cl)c2nonc12
BJ
  EC50: 5.38 µM (active)
[18]
  CC50: 16.7 µM (active)
[19]
  CC50: 20.3 µM (active)
[20]
  EC50: 5.44 µM (inconclusive)
cells
  IC50: 0.32 µM (active)

## Cc1ccc(C(=O)NC2(O)C(=O)c3ccccc3C2=O)cc1C
[21]
  IC50: > 0.828 µM (active)
